This note sets out measurements from patent publication US20160370379A1, “BLOOD-BASED BIOMARKER FOR CANCER” (J-PHARMA CO., LTD., priority 2014, published 2016).

Each structure is given as a SMILES string.

One experiment has as its target T1, LAT1 (Homo sapiens, UniProt Q01650).
T1 construct: from tissue; host or cells: Solid tumours (pancreas, colon, gall bladder cancer with metastases) in living patients
In words: Free amino acid concentration in blood serum of cancer patients at BSC stage administered inhibitor agent. Format: in vivo. As for the experimental part:
Immediately after collecting blood from patients having gastric cancer [100 samples, average age (lowest value-highest value) 66.1 (31 to 89 years old), sex ratio 72:28], pancreas cancer [27, 70.3 (56 to 81) 13:14], or bile duct cancer [6, 70.5 (68 to 75) 5:1] and healthy control with no cancer [12, 50.8 (29 to 73) 11:1], blood serum was isolated and stored in a deep freezer (−80° C.) during a period until determination. The concentration of seven types of amino acids (histidine, isoleucine, leucine, methionine, tryptophan, valine, and tyrosine) was measured by mass analysis, and the measurement result was compared to the value obtained from blood of a healthy control. The concentration of each amino acid was represented as relative value of each case, with the mean value from the healthy control being 100%. The percentage was compared between the cancer patient and healthy control.
A predetermined clinical test (test and experiment) was registered with an administration bureau, and after obtaining an approval of the institutional review board (IRB) of a site management organization, patients were selected and blood serum for analysis was collected, stored, and analyzed. The patient as a subject carried solid tumors for which standard treatments for cancer are ineffective or are intolerable, and they were in a state generally referred to as a BSC stage. […]

In experiment [1] the test system is gastric cancer cell line 44As3-11. In words: Amino acid concentration in culture medium of gastric cancer cell line with LAT1 inhibitor added. The format is cell-based. The following applies: 44As3-11 culture, inhibitor added at each concentration, medium collected 0-97 hrs (FIG. 2b). As for the experimental part: (§1) Each of the cancer cell lines 44As3-11 (gastric cancer cell line), T3M-4 (pancreas cancer cell line), and MIAPaCa-2 (pancreas cancer cell line) was used. By using a 6 well plate, culture was performed at 37° C. with 5×10^4 cells in 3 mL (10% FBS, L-Glu+PS in RPMI1640). The culture medium was collected at 0, 24, 48, 72, and 97 hrs and centrifuged at 1,000 rpm. The supernatant (1.0 mL) was then stored in a deep freezer (−80° C.) during a period until determination. Eight kinds of amino acids (including phenylalanine in addition to the aforementioned histidine, isoleucine, leucine, methionine, tryptophan, valine, and tyrosine) were measured by mass analysis. Each culture was performed in triplet and, by measuring the sample, the concentration of each amino acid was represented as mean value±standard deviation, and then compared among the groups. Furthermore, after adding an anticancer agent (O-(5-amino-2-phenylbenzoxazol-7-yl)methyl-3,5-dichloro-L-tyrosine) at each concentration to the culture medium, the property of inhibiting the decrease in amino acid concentration in the culture medium was observed.
(§2) 3) As for the statistical processing, Mann-Whitney U test was used for comparison between two groups, and those having a risk ratio of 0.05 or less were determined to be a significant difference.

In experiment [2] the test system is pancreas cancer cell line T3M-4. In words: Amino acid concentration in culture medium of pancreas cancer cell line with LAT1 inhibitor added. The format is cell-based. The following applies: T3M-4 culture, inhibitor added at each concentration, medium collected 0-97 hrs (FIG. 3b). The method, then: as §1, §2

T1 sequence (Q01650 whole entry): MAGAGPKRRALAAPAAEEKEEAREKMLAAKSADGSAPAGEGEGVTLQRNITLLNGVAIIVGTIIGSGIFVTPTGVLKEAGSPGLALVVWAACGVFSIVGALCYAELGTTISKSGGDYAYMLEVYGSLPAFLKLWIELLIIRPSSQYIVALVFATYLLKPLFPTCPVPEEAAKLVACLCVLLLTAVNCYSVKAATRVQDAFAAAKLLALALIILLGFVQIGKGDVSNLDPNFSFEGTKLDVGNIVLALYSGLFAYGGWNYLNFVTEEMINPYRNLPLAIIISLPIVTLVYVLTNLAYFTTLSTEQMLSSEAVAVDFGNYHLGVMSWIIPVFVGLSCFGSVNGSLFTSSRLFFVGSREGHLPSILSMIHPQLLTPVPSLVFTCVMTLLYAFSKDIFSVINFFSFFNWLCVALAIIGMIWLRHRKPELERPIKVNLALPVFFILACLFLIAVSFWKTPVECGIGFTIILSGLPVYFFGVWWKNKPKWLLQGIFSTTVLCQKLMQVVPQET
T1 sequence (P08195 102-630 partner): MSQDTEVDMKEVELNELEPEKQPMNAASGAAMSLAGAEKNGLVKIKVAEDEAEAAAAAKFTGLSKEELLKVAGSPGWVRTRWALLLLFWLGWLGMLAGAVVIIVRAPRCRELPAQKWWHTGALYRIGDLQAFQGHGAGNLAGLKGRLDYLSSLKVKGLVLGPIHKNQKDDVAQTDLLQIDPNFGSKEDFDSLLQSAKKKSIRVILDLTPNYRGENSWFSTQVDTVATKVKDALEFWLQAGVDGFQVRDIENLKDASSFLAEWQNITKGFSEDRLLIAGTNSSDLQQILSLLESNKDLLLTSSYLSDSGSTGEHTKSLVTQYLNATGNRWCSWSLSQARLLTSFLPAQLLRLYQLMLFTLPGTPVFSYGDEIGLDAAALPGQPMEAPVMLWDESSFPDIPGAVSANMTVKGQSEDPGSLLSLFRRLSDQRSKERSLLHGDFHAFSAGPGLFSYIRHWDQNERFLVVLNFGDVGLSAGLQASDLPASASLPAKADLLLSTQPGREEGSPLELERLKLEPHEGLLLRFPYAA

For the molecule `Nc1cc(COc2c(Cl)cc(C[C@H](N)C(=O)O)cc2Cl)c2oc(-c3ccccc3)nc2c1` [LAT1 inhibitor, O-(5-amino-2-phenylbenzoxazol-7-yl)methyl-3,5-dichloro-L-tyrosine], the “concentration of each amino acid in blood serum after single administration versus before administration” value on LAT1 (patients at BSC stage, 12 mg/m^2/day, 25.5 hours after start of single administration (FIGS. 4a, 4b)) is reported as “higher than the value before the administration”. In addition, the “relative blood concentration of eight amino acids before versus after single administration” value on LAT1 (subjects 102 and 104, healthy control mean = 100, Student's t test (FIG. 4c)) was “significant difference between cases before and after the single administration”. For the same molecule, the “inhibition of the decrease in concentration of eight amino acids in the culture medium” value in experiment [1] and in experiment [2] was “property of inhibiting amino acid decrease in a pharmaceutical concentration dependent manner was shown” throughout.
